One may read the IC50 as the concentration needed to halve the response being measured. A low value points to greater potency in that assay. As usually defined, the EC50 is the midpoint of the concentration-response curve. One may read the CC50 as the concentration giving 50% cytotoxicity. Higher therefore signals better tolerance by the cells.

≈ marks a conversion by molar mass, not a printed value.

From ChEMBL document CHEMBL1208736, “Synthesis of highly functionalized 2,4-diaminoquinazolines as anticancer and anti-HIV agents” (Bioorg Med Chem Lett, 2010) come the findings set out here.

For one data set, the system named is HL-60. Nature of the data set: Cytotoxicity against human HL60 cells by MTT assay. It is filed as functional, cell-based. A general note: Tetrazolium assays rely on reduction of a dye to a coloured formazan, in cell work by metabolically active cells.
A further data set deals with SK-OV-3. Nature of the data set: Cytotoxicity against human SKOV3 cells by MTT assay. It is filed as functional, cell-based.
For another data set, the system named is HepG2. Nature of the data set: Cytotoxicity against human HepG2 cells by MTT assay. It is filed as functional, cell-based.
In a further data set the test system is A-431. Nature of the data set: Cytotoxicity against human A431 cells by MTT assay. It is filed as functional, cell-based.
A further data set relates to A549. Nature of the data set: Cytotoxicity against human A549 cells by MTT assay. It is filed as functional, cell-based.
Data set [1] concerns Human immunodeficiency virus 1. Nature of the data set: Antiviral activity against HIV1 3B infected in human C8166 cells assessed as inhibition of viral replication. Particulars: Human immunodeficiency virus 1, 3B. It is filed as functional, organism-based.
Data set [2] is described as follows: Cytotoxicity against human C8166 cells after 3 days by MTT assay. It is filed as cell-based.
The nature of data set [3]: Therapeutic index, ratio of CC50 for human C8166 cells to EC50 for HIV1 3B. It is filed as cell-based. To be noted: read-out: Ratio CC50/EC50.

With `N#Cc1c(NCc2ccccc2)c(Cl)c2nc(N)nc(N)c2c1F`, the half-maximal inhibitory concentration (IC50) with HL-60 was determined as 0.3 µg/mL (≈ 0.875 µM); in the data set on SK-OV-3, 0.8 µg/mL (≈ 2.33 µM); in the data set with HepG2 it was 1.4 µg/mL (≈ 4.08 µM); with A-431 it was 1.4 µg/mL (≈ 4.08 µM); in the data set with A549, 34.1 µg/mL (≈ 99.5 µM).

On to `N#Cc1c(Sc2ccccc2)c(Cl)c2nc(N)nc(N)c2c1Sc1ccccc1`, for which the concentration for half-maximal inhibition (IC50) was 26 µg/mL (≈ 59.6 µM) in the data set with HL-60; 9.4 µg/mL (≈ 21.6 µM) in the data set with SK-OV-3; 5 µg/mL (≈ 11.5 µM) in the data set on HepG2; 32.4 µg/mL (≈ 74.3 µM) in the data set on A-431; greater than 1000 µg/mL in the data set with A549. For the same compound, the EC50 in data set [1] was determined as 3.2 µg/mL (≈ 7.34 µM). The same compound came in with a CC50 at 72 h in data set [2] of 46.8 µg/mL (≈ 107 µM). The selectivity ratio in data set [3] amounted to 10.6.

On to `CCCSc1c(C#N)c(SCCC)c2c(N)nc(N)nc2c1Cl`, for which the IC50 in the data set on HL-60 was 7.7 µg/mL (≈ 20.9 µM); in the data set on SK-OV-3, 1.2 µg/mL (≈ 3.26 µM); with HepG2, greater than 1000 µg/mL; in the data set with A-431, 535 µg/mL (≈ 1450 µM); in the data set with A549 it was greater than 1000 µg/mL. In addition, the half-maximal effective concentration (EC50) in data set [1] is 13.3 µg/mL (≈ 36.1 µM). The compound further yielded a CC50 at 72 h in data set [2] greater than 200 µg/mL. For the same compound, the selectivity ratio in data set [3] is 11.5.

Regarding `CC(C)(C)Nc1c(C#N)c(F)c2c(N)nc(N)nc2c1Cl`, the IC50 stood at 5.2 µg/mL (≈ 16.8 µM) in the data set on HL-60; 2.1 µg/mL (≈ 6.8 µM) in the data set on SK-OV-3; 5.4 µg/mL (≈ 17.5 µM) in the data set with HepG2; 6.5 µg/mL (≈ 21.1 µM) in the data set on A-431; 313 µg/mL (≈ 1010 µM) with A549.

As for `CC(C)(C)Nc1c(C#N)c(F)c2c(N)nc(N)nc2c1F`, the 50% inhibitory concentration (IC50) with HL-60 was 18 µg/mL (≈ 61.6 µM); in the data set with SK-OV-3, 2.4 µg/mL (≈ 8.21 µM); in the data set on HepG2, 16.2 µg/mL (≈ 55.4 µM); in the data set with A-431, 11.9 µg/mL (≈ 40.7 µM); with A549, greater than 1000 µg/mL.

`N#Cc1c(NCc2ccccc2)c(F)c2nc(N)nc(N)c2c1F`: the IC50 is 14 µg/mL (≈ 42.9 µM) with HL-60; 11 µg/mL (≈ 33.7 µM) in the data set with SK-OV-3; 27.8 µg/mL (≈ 85.2 µM) with HepG2; 12.9 µg/mL (≈ 39.5 µM) with A-431; greater than 1000 µg/mL in the data set with A549.

With `N#Cc1c(Oc2ccccc2)c(Cl)c2nc(N)nc(N)c2c1Oc1ccccc1`, the IC50 with HL-60 was 88 µg/mL (≈ 218 µM); in the data set with SK-OV-3, 14 µg/mL (≈ 34.7 µM); with HepG2 it was greater than 1000 µg/mL; in the data set on A-431, greater than 1000 µg/mL; with A549, greater than 1000 µg/mL.

As to `Cc1cn([C@H]2C[C@H](N=[N+]=[N-])[C@@H](CO)O2)c(=O)[nH]c1=O` [ZIDOVUDINE], in data set [1], the concentration giving a half-maximal response (EC50) turned out to be 0.004 µg/mL (≈ 0.015 µM). In data set [3], the selectivity ratio came to 286000.

With `N#Cc1c(OCc2ccccc2)c(F)c2nc(N)nc(N)c2c1OCc1ccccc1`, the IC50 with HL-60 is 62 µg/mL (≈ 149 µM); with SK-OV-3 it was 14 µg/mL (≈ 33.7 µM); in the data set on HepG2, 84 µg/mL (≈ 202 µM); in the data set on A-431 it was 68.3 µg/mL (≈ 164 µM); with A549, greater than 1000 µg/mL.

As to `CCN(CC)c1c(C#N)c(F)c2c(N)nc(N)nc2c1F`, the half-maximal inhibitory concentration (IC50) amounted to 6.4 µg/mL (≈ 21.9 µM) with HL-60; 1 µg/mL (≈ 3.42 µM) with SK-OV-3; 1.3 µg/mL (≈ 4.45 µM) in the data set with HepG2; 16.4 µg/mL (≈ 56.1 µM) with A-431; 26.5 µg/mL (≈ 90.7 µM) in the data set with A549.

Regarding `COc1ccc(Nc2c(C#N)c(F)c3c(N)nc(N)nc3c2Cl)cc1`, the IC50 in the data set with HL-60 is 2.2 µg/mL (≈ 6.13 µM); in the data set on SK-OV-3 it was 1.6 µg/mL (≈ 4.46 µM); in the data set with HepG2, 10.2 µg/mL (≈ 28.4 µM); in the data set on A-431 it was 5.1 µg/mL (≈ 14.2 µM); in the data set with A549, 103 µg/mL (≈ 287 µM).

For the compound `N#Cc1c(Nc2ccc(Cl)cc2)c(F)c2nc(N)nc(N)c2c1F`, the IC50 in the data set on HL-60 came to 35 µg/mL (≈ 101 µM); with SK-OV-3, 4.8 µg/mL (≈ 13.8 µM); in the data set on HepG2, 1 µg/mL (≈ 2.88 µM); in the data set with A-431, 4.5 µg/mL (≈ 13 µM); in the data set with A549 it was 115 µg/mL (≈ 332 µM).

As to `N#Cc1c(Nc2ccccc2)c(F)c2nc(N)nc(N)c2c1F`, the IC50 is 40 µg/mL (≈ 128 µM) with HL-60; 6.5 µg/mL (≈ 20.8 µM) in the data set with SK-OV-3; 1.4 µg/mL (≈ 4.48 µM) with HepG2; 7 µg/mL (≈ 22.4 µM) with A-431; greater than 1000 µg/mL in the data set on A549. Also, in data set [1], the EC50 worked out at 0.2 µg/mL (≈ 0.64 µM). Besides, half-maximal cytotoxicity in data set [2] (CC50 at 72 h) was put at 6.9 µg/mL (≈ 22.1 µM). Also, the selectivity ratio in data set [3] turned out to be 16.3.

Consider `N#Cc1c(F)c(Cl)c2nc(N)nc(N)c2c1F`, for which the 50% inhibitory concentration (IC50) is 0.04 µg/mL (≈ 0.156 µM) with HL-60; 0.14 µg/mL (≈ 0.548 µM) with SK-OV-3; 4.8 µg/mL (≈ 18.8 µM) in the data set with HepG2; 1.5 µg/mL (≈ 5.87 µM) with A-431; 30.8 µg/mL (≈ 120 µM) in the data set on A549. Besides, in data set [1], the EC50 was 0.1 µg/mL (≈ 0.391 µM). The 50% cytotoxic concentration (CC50) at 72 h in data set [2] was 3.9 µg/mL (≈ 15.3 µM). Further, the selectivity ratio in data set [3] is 7.

For the compound `N#Cc1c(NCc2ccccc2)c(Cl)c2nc(N)nc(N)c2c1NCc1ccccc1`, the half-inhibitory concentration (IC50) in the data set on HL-60 is 8.5 µg/mL (≈ 19.8 µM); in the data set on SK-OV-3 it was 3.7 µg/mL (≈ 8.61 µM); in the data set on HepG2, 19.2 µg/mL (≈ 44.7 µM); with A-431 it was 716 µg/mL (≈ 1670 µM); in the data set on A549, greater than 1000 µg/mL.

Take `N#Cc1c(NCc2ccccc2)c(F)c2nc(N)nc(N)c2c1NCc1ccccc1`: the IC50 in the data set with HL-60 was determined as 7.2 µg/mL (≈ 17.4 µM); with SK-OV-3, 2.5 µg/mL (≈ 6.05 µM); in the data set with HepG2 it was 13.4 µg/mL (≈ 32.4 µM); with A-431, 20.7 µg/mL (≈ 50.1 µM); in the data set with A549 it was 13.9 µg/mL (≈ 33.6 µM).

For the compound `N#Cc1c(N)c(Cl)c2nc(N)nc(N)c2c1Cl`, the half-maximal inhibitory concentration (IC50) in the data set on HL-60 is 6.7 µg/mL (≈ 24.9 µM); in the data set on SK-OV-3, 0.8 µg/mL (≈ 2.97 µM); in the data set with HepG2, 3.7 µg/mL (≈ 13.7 µM); in the data set with A-431, 9.5 µg/mL (≈ 35.3 µM); with A549 it was 188 µg/mL (≈ 699 µM).

Take `N#Cc1c(Nc2ccccc2)c(Cl)c2nc(N)nc(N)c2c1F`: the IC50 in the data set with HL-60 was 47 µg/mL (≈ 143 µM); in the data set with SK-OV-3 it was 3.7 µg/mL (≈ 11.3 µM); in the data set on HepG2 it was 5.9 µg/mL (≈ 17.9 µM); in the data set with A-431 it was 4.8 µg/mL (≈ 14.6 µM); in the data set with A549, greater than 1000 µg/mL. The EC50 in data set [1] is 0.4 µg/mL (≈ 1.22 µM). In data set [2], this compound yielded a half-maximal cytotoxic concentration (CC50) at 72 h of 6.3 µg/mL (≈ 19.2 µM). Further, in data set [3], the selectivity ratio was determined as 13.5.

Consider `N#Cc1c(Cl)c(Cl)c2nc(N)nc(N)c2c1Cl`, for which the IC50 with HL-60 was determined as 19 µg/mL (≈ 65.9 µM); with SK-OV-3, 1.3 µg/mL (≈ 4.51 µM); in the data set with HepG2, 2.5 µg/mL (≈ 8.66 µM); with A-431, 3.3 µg/mL (≈ 11.4 µM); with A549 it was 29.7 µg/mL (≈ 103 µM). In addition, the half-maximal effective concentration (EC50) in data set [1] is 1 µg/mL (≈ 3.47 µM). This compound showed a CC50 at 72 h in data set [2] of 14.3 µg/mL (≈ 49.6 µM). In addition, the selectivity ratio in data set [3] stood at 8.

For `N#Cc1c(F)c(F)c2nc(N)nc(N)c2c1F`, the IC50 in the data set with HL-60 was 51 µg/mL (≈ 213 µM); in the data set on SK-OV-3, 8 µg/mL (≈ 33.5 µM); in the data set with HepG2, 5 µg/mL (≈ 20.9 µM); in the data set on A-431 it was 105 µg/mL (≈ 439 µM); with A549, greater than 1000 µg/mL. The EC50 in data set [1] was determined as 0.6 µg/mL (≈ 2.51 µM). For the same compound, the half-maximal cytotoxic concentration (CC50) at 72 h in data set [2] worked out at 36.4 µg/mL (≈ 152 µM). In data set [3], the selectivity ratio was 59.6.

For `CCCCNc1c(C#N)c(NCCCC)c2c(N)nc(N)nc2c1F`, the IC50 in the data set with HL-60 was 1.4 µg/mL (≈ 4.05 µM); with SK-OV-3, 1.6 µg/mL (≈ 4.63 µM); in the data set with HepG2, 2.6 µg/mL (≈ 7.53 µM); in the data set with A-431, 1 µg/mL (≈ 2.89 µM); in the data set with A549, greater than 1000 µg/mL.

As to `CCN(CC)c1c(C#N)c(F)c2c(N)nc(N)nc2c1Cl`, the IC50 amounted to 2.3 µg/mL (≈ 7.45 µM) in the data set with HL-60; 0.4 µg/mL (≈ 1.3 µM) in the data set with SK-OV-3; 2 µg/mL (≈ 6.48 µM) in the data set on HepG2; 7.3 µg/mL (≈ 23.6 µM) with A-431; 7.1 µg/mL (≈ 23 µM) with A549.

`CCCCNc1c(C#N)c(NCCCC)c2c(N)nc(N)nc2c1Cl`: the IC50 in the data set on HL-60 was 0.7 µg/mL (≈ 1.93 µM); in the data set with SK-OV-3 it was 0.6 µg/mL (≈ 1.66 µM); in the data set with HepG2, 1.3 µg/mL (≈ 3.59 µM); with A-431, 2.5 µg/mL (≈ 6.91 µM); in the data set on A549, 2 µg/mL (≈ 5.53 µM).
